Data reported in patent US7811797B2, “α-isomaltosylglucosaccharide-forming enzyme, process and uses of the same” (Kabushiki Kaisha Hayashibara Seibutsu Kagaku Kenkyujo, priority 2000, dated 2010).

Tests used:
[1] = Saturation concentration of cyclotetrasaccharide in water; assay type: physicochemical
From the text: Each resulting saturated solution of cyclotetrasaccharide was membrane filtered to remove undissolved cyclotetrasaccharide, and each filtrate was then examined for moisture content by the drying loss method to determine a saturation concentration of cyclotetrasaccharide at respective temperatures.

[2] = Amino carbonyl reaction with glycine; assay type: physicochemical; conditions: 10% (w/v) with 1% (w/v) glycine, pH 7.0, 100° C.
Method: Four milliliters of the resulting solution were placed in a glass test tube, sealed, and heated at 100° C. for 30 to 90 min. After allowing to stand for cooling at ambient temperature, each of the resulting solutions was measured for coloration degree to examine on their amino carbonyl reactivity. The coloration degree was evaluated based on the absorbance in a cell with 1-cm light pass at a wavelength of 480 nm.

[3] = pH stability of cyclotetrasaccharide solution; assay type: physicochemical; conditions: 4% (w/v), 100° C. for 24 hours; for Purity (%) after heating: HPLC
Method: Eight milliliters of each solution was placed in a glass test tube, followed by sealing the test tube and heating the solution at 100° C. for 24 hours. After cooling, each solution was measured for coloration degree and determined for purity on HPLC. The coloration degree was evaluated based on the absorbance in a cell with a 1-cm light pass at a wavelength of 480 nm.

[4] = tested on: Clostridium perfringens JCM 3816; assay type: cell-based; conditions: PYF medium with 0.5% saccharide, 37° C., four days, anaerobic
[5] = tested on: α-isomaltosylglucosaccharide-forming enzyme; experiment: Transfer-acceptor specificity, Enzyme of Strain C11; assay type: biochemical, Bacillus globisporus C11; conditions: acceptor 1.6%, PINE-DEX #100 donor 4%, one unit/g donor, 30° C., pH 6.0, 24 hours
Amylopsin = molecular target: T1, Amylopsin (Homo sapiens, UniProt P04746); experiment: Digestion test in vitro, amylopsin
T1 sequence (P04746 16-511): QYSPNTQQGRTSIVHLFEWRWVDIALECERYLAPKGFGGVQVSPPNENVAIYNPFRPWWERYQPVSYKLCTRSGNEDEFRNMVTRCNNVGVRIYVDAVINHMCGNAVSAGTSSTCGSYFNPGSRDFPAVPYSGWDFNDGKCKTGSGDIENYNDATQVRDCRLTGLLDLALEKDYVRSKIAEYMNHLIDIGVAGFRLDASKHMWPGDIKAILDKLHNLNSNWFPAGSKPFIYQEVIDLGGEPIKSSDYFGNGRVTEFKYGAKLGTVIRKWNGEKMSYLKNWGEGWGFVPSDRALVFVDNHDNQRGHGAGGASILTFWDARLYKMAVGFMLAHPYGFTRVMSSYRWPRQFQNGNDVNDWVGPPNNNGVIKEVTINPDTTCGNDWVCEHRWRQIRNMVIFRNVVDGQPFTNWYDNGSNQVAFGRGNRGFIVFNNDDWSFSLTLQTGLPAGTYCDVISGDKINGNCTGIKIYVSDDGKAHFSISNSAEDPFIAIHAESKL

[6] = tested on: α-isomaltosylglucosaccharide-forming enzyme; experiment: Transfer-acceptor specificity, Enzyme of Strain N75; assay type: biochemical, Bacillus globisporus N75; conditions: acceptor 1.6%, PINE-DEX #100 donor 4%, one unit/g donor, 30° C., pH 6.0, 24 hours
Procedure, shortened: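 Each candidate acceptor at 1.6% was combined with 4% partial starch hydrolysate donor and 1 unit/g donor (d.s.b.) of purified enzyme. Incubation ran 24 h at 30 °C, pH 6.0 for the C9, C11 and N75 enzymes and pH 8.4 for A19. Transfer products were detected by GLC for mono- and disaccharide acceptors and HPLC for trisaccharide acceptors.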

Question: With `OCC1OC2OCC3O[C@H](O[C@H]4C(O)C(CO)OC(OCC5O[C@H](O[C@@H](C1O)C2O)C(O)C(O)[C@@H]5O)C4O)C(O)C(O)[C@@H]3O` (stereo partly drawn) [Cyclotetrasaccharide, cyclo{→6)-α-D-glucopyranosyl-(1→3)-α-D-glucopyranosyl-(1→6)-α-D-glucopyranosyl-(1→3)-α-D-glucopyransoyl-(1→}] as the compound, how does the “Saturation concentration (%)” value ([1]; 10° C.) read?
Answer: 30.3%

Question: What about the “Saturation concentration (%)” value ([1]; 30° C.) of the same compound?
Answer: 34.2%

Question: And the “Saturation concentration (%)” value ([1]; 50° C.)?
Answer: 42.6%

Question: What about the “Saturation concentration (%)” value ([1]; 70° C.) of the same compound?
Answer: 53.0%

Question: What about the “Saturation concentration (%)” value ([1]; 90° C.) of the same compound?
Answer: 70.5%

Question: And the “Coloration degree (A480 nm)” value ([2]; heating time 0 min)?
Answer: 0.00 A480 nm

Question: What about the “Coloration degree (A480 nm)” value ([2]; heating time 30 min) of the same compound?
Answer: 0.00 A480 nm

Question: And the “Coloration degree (A480 nm)” value ([2]; heating time 60 min)?
Answer: 0.00 A480 nm

Question: And the “Coloration degree (A480 nm)” value ([2]; heating time 90 min)?
Answer: 0.00 A480 nm

Question: And the “Coloration degree (A480 nm)” value ([3]; pH 2.0 (Acetate buffer))?
Answer: 0.00 A480 nm

Question: And the “Purity (%) after heating” value ([3]; pH 2.0 (Acetate buffer))?
Answer: 93%

Question: What about the “Coloration degree (A480 nm)” value ([3]; pH 3.0 (Acetate buffer)) of the same compound?
Answer: 0.00 A480 nm

Question: And the “Purity (%) after heating” value ([3]; pH 3.0 (Acetate buffer))?
Answer: 100%

Question: What about the “Coloration degree (A480 nm)” value ([3]; pH 4.0 (Acetate buffer)) of the same compound?
Answer: 0.00 A480 nm

Question: And the “Purity (%) after heating” value ([3]; pH 4.0 (Acetate buffer))?
Answer: 100%

Question: And the “Coloration degree (A480 nm)” value ([3]; pH 5.0 (Acetate buffer))?
Answer: 0.00 A480 nm

Question: What about the “Purity (%) after heating” value ([3]; pH 5.0 (Acetate buffer)) of the same compound?
Answer: 100%

Question: And the “Coloration degree (A480 nm)” value ([3]; pH 6.0 (Tris-HCl buffer))?
Answer: 0.00 A480 nm

Question: What about the “Purity (%) after heating” value ([3]; pH 6.0 (Tris-HCl buffer)) of the same compound?
Answer: 100%

Question: What about the “Coloration degree (A480 nm)” value ([3]; pH 7.0 (Tris-HCl buffer)) of the same compound?
Answer: 0.00 A480 nm

Question: What about the “Purity (%) after heating” value ([3]; pH 7.0 (Tris-HCl buffer)) of the same compound?
Answer: 100%

Question: And the “Coloration degree (A480 nm)” value ([3]; pH 8.0 (Tris-HCl buffer))?
Answer: 0.00 A480 nm

Question: And the “Purity (%) after heating” value ([3]; pH 8.0 (Tris-HCl buffer))?
Answer: 100%

Question: And the “Coloration degree (A480 nm)” value ([3]; pH 9.0 (Ammonium buffer))?
Answer: 0.00 A480 nm

Question: And the “Purity (%) after heating” value ([3]; pH 9.0 (Ammonium buffer))?
Answer: 100%

Question: What about the “Coloration degree (A480 nm)” value ([3]; pH 10.0 (Ammonium buffer)) of the same compound?
Answer: 0.00 A480 nm

Question: And the “Purity (%) after heating” value ([3]; pH 10.0 (Ammonium buffer))?
Answer: 100%

Question: And the Assimilability [4]?
Answer: − (judged negative (−) when the post culture had a pH of 6.0 or higher)

Question: What does the source list for `OC[C@@H](O)[C@@H](O[C@H]1O[C@H](CO)[C@@H](O)[C@H](O)[C@H]1O)[C@H](O)[C@@H](O)CO` [Maltitol, reference compound]?
Answer: Product of transferring reaction, Enzyme of Strain C11 [5]: ++ (a saccharide-transferred product was detected in an amount over ten percent through transfer reaction to acceptor); Decomposition percentage (%) by digestive enzyme (Amylopsin): 0.0%; Product of transferring reaction, Enzyme of Strain N75 [6]: ++ (a saccharide-transferred product was detected in an amount over ten percent through transfer reaction to acceptor)
